Measurements published in patent US10188743B2, “Cytisine-linked isoflavonoid antineoplastic agents for the treatment of cancer” (UNIVERSITY OF KENTUCKY RESEARCH FOUNDATION, priority 2016, dated 2019).

What was measured:
[1] = test system: LS174T colon cancer cells; assay: Fatty acid analysis of treated cells; type: cell-based
Description: Fatty acid analysis: Free and total fatty acids (after saponification) were prepared as reported previously (Spencer et al. Diabetes 62(5):1709-1717) converted to N-(4-aminomethylphenyl)pyridinium derivatives (Bollinger et al. J Lipid Res 54(12):3523-3530) and quantitated HPLC electrospray ionization tandem mass spectrometry with quantitation accomplished using exogenously added heptadecanoic acid as a recovery standard and reference to offline calibrations generated using authentic fatty acid standards.

LS174T cancer cells = assay: ATP analysis of treated cells; type: cell-based
Description: ATP analysis: Cells growing in 12-well plates were treated with DMSO or inhibitors, and lysed by adding 1 mL boiling D.D. water. Supernatants were analyzed by luminescence using ATP Determination Kit (Invitrogen, A22066).

LS174T cells = assay: Seahorse XF assay (OCR, ECAR); type: cell-based
Source text: (§1) We further characterized the effects of cytisine-linked isoflavonoid 10c on energy metabolism using a Seahorse XF assay (FIG. 4D-F) that measured oxygen consumption rate (OCR), which was an indicator of mitochondrial respiration, and measured extracellular acidification rate (ECAR), which was largely the result of glycolysis. […] Similar results were found in DLD-1 colon cancer cells and PC-3 prostate cancer cells (FIGS. 8 and 9). These OCR findings were consistent with the prior evaluation of these cytisine-linked isoflavonoids that targeted the hydratase activity in HSD17B4, inhibited VLCFA beta-oxidation, depressed acetyl CoA generation, decreased the ratio of ATP/AMP, and triggered AMPK activation (FIG. 5).
(§2) Seahorse assay: 3×10^4 cells were seeded in XF96 Cell Culture microplate (80 μL of 3.75×10^5 cells/m:). On the next day, cells were treated with DMSO or inhibitors and analyzed using the Seahorse analyzer in Redox Metabolism Shared Resource Facility (RM SRF) at the Markey Cancer Center.

DLD1 colon cancer cells = assay: Seahorse XF assay; type: cell-based
Source text: as §1, §2

[2] = test system: PC-3 prostate cancer cells; assay: Seahorse XF assay; type: cell-based; settings: PC-3 cells
Source text: as §1, §2

p70 = p70 phosphorylation, mTor pathway (Western blotting); type: cell-based; settings: PC-3 and LS174T cells
Description: Biochemistry. Western blotting: Cells were lysed in the appropriate volume of lysis buffer (50 mM HEPES, 100 mM NaCl, 2 mM EDTA, 1% glycerol, 50 mM NaF, 1 mM Na3VO4, 1% Triton X-100, with protease inhibitors). The following antibodies were used: HSD17B4 (GeneTex, GTX103864), AMPK (Cell Signaling, 2532), pAMPK (Cell Signaling, 2535), ACC (Cell Signaling, 3676), pACC (Cell Signaling, 11818), p^70 (Cell Signaling, 2708), p-p^70 (Cell Signaling, 9914), S6 (Cell Signaling, 2217), pS6 (Cell Signaling, 4858), MCCA (GeneTex, GTX110062), tubulin (Hybridoma Bank, E7), Actin (Sigma, A1978), His-tag (BD Pharmingen, 552564).

[3] = target: T1, α,β-dehydrogenase activity of HSD17B4 (Homo sapiens, UniProt P51659); assay: HSD17B4 dehydrogenase assay (NADH readout); type: biochemical
T1 construct: His-tag; made in house; host or cells: E. coli BL21 (pET28)
T1 sequence (P51659 1-736): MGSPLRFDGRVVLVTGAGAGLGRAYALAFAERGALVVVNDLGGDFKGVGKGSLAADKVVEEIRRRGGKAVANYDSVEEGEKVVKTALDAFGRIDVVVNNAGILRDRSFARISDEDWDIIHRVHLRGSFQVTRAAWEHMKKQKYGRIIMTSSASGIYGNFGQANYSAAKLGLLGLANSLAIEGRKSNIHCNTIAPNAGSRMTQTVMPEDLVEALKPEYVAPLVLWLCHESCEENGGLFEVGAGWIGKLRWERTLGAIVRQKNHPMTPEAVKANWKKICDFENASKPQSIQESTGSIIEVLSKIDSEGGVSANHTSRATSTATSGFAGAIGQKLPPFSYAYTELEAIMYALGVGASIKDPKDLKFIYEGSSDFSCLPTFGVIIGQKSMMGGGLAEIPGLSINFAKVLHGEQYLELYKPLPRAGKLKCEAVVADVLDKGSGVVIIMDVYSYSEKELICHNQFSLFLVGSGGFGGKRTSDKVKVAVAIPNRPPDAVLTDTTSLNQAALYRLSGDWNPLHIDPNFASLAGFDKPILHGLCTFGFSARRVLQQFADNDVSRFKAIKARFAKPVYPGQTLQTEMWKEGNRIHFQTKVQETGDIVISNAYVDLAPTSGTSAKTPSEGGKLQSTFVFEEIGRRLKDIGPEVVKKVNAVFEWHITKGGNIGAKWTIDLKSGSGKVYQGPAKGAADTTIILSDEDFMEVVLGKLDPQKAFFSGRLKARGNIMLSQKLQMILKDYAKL
Source text: We acquired further evidence along these lines through studies using the N-terminal α,β-dehydrogenase and C-terminal hydratase fragments of HSD17B4 as well as the full-length protein. We evaluated the α,β-dehydrogenase activity using DL-3-hydroxylbutyryl-CoA as a substrate and the conversion of NAD^+ to NADH as a readout. We concomitantly measured the hydratase activity using crotonoyl-CoA as a substrate and the diminished ultraviolet absorption of the α,β-unsaturated thioester chromophore as readout. The full-length protein, as expected, had both enzyme activities (FIGS. 7A and 7B). The C-terminal-truncated fragments N318 and N634 but not the N-terminal-truncation fragment C919 had α,β-dehydrogenase activity (FIG. 7A). The C-terminal fragment N634 and the N-terminal fragment C919, but not the C-terminal fragment N318, had hydratase activity (FIG. 7B), as summarized in FIG. 3A.
The enzymatic activities of HSD17B4 were analyzed using the method reported by Novikov et al. (J. Biol. Chem., 1994, 269, 27125). […] The reaction was quantified by measuring the fluorescent product NADH (excitation: 340 nm; emission 460 nm). […] The reaction was quantified by measuring the remaining substrate using absorbance at 280 nm.

O=c1c(-c2ccc(Cl)cc2)coc2cc(OCCN3C[C@@H]4C[C@@H](C3)c3cccc(=O)n3C4)ccc12 [Compound 10c, (1 S,5S)-3-(2-((3-(4-chlorophenyl)-4-oxo-4H-chromen-7-yl)oxy)ethyl)-3,4,5,6-tetrahydro-1H-1,5-methanopyrido[1,2-a][1,5]diazocin-8(2H)-one]
fatty acid levels [1]: reduced the levels of a number of fatty acids | level of ATP (LS174T cancer cells): decreased the levels | respiration rates (LS174T cells): significantly reduced the respiration rates | levels of ATP production (LS174T cells; OCR and ECAR assays): reduced the levels of ATP production | ATP production (DLD1 colon cancer cells): reduced | respiration rate (DLD1 colon cancer cells): reduced respiration rate | respiration rate [2]: reduced respiration rate | phosphorylation of p70 (p70): inhibited the phosphorylation | effect on α,β-dehydrogenase activity [3]: no effect
